Measured values: patent US20060153773A1, “Contrast medium for mri” (priority 2003, published 2006)

Key:
[1] = tested on: injured left common carotid artery; test: In vivo MRI of common carotid arteries in balloon-injured living rat; conditions: for MRI signal in the injured left common carotid artery (image): 2 ml of 24 mM (about 160 μM/kg) via left femoral vein, T1 weighted spin echo, FIG. 6; for MRI signal intensity of injured common carotid artery versus normal common carotid artery: 2 ml of 24 mM via left femoral vein, time course, own agent stated at ten minutes after administration, FIG. 7
Procedure: This example is to evaluate the imaging capability of the contrast agent of the present invention by means of an in vivo experiment using a living rat. A rat (weighing about 300 g) was anesthetized with pentobarbital, and inserted with a balloon-tip catheter through the left femoral artery [FIG. 5 (a), 1]. The left common carotid artery was scraped by the balloon to injure the endothelia thereof. Then the rat was injected, through the left femoral vein [FIG. 5 (a), 2], with 2 ml (about 160 μM/kg) of physiological aqueous solution of the contrast agent as prepared in Example 1 (24 mM). At predetermined lapses of time, images were taken by MRI (the T1 weighted spin echo method) around the right and left common carotid artery [the cross section along the line N-N in FIG. 5 (a)]. The rat was supplementally anesthetized in order to keep it motionless during the imaging operation. For comparison, an evaluation experiment was also carried out in the same manner with a conventional agent, DTPA-Gd. […] In FIG. 6, by “injured” is designated the left common carotid artery injured by the balloon, corresponding to 4 in FIG. 5 (b), while by “intact” is designated the right common carotid artery, which is normal and corresponds to 5 in FIG. 5 (b). The numeral 3 in FIG. 5 (b) denotes the bronchium.

[2] = tested on: exfoliated endothelial site of aortic vascular section; test: In vitro MRI imaging capability on aortic vascular section extirpated from a pig; conditions: pig aortic section immersed in 10 mM aqueous solution for ten seconds
Procedure: For the contrast agent as synthesized (prepared) in Example 1, evaluation of in vitro imaging capability by MRI was carried out with an aortic vascular section extirpated from a pig, as a specimen.
The aortic vascular section extirpated from a pig was spread in a rectangular shape measuring about 2 cm×3 cm to prepare a vascular section sample. The endothelial surface of the left half of the sample was exfoliated with a scalpel. The sample was then immersed in a 10 mM aqueous solution of the contrast agent for ten seconds. Following thorough washing with physiological saline solution, the sample was subjected to the evaluation by MRI as well as by visual observation.
FIG. 2 (A) is a picture taken with a digital camera, which corresponds to the visual observation. […] FIG. 2 (B) is an MRI image (by the T1 weighted spin echo method).

[3] = Gd content remaining in various organs of the rat (ICP); format: in vivo
Procedure: This was also verified by measuring Gd (gadolinium) content remaining in various organs of the rat, in which the measurement was carried out as follows: The rat was administered with 1 ml heparin and a blood sample was taken from the rat. Then physiological saline solution was circulated throughout the rat, and the various organs were extirpated from the rat. To each organ and the blood sample was added 3 ml nitric acid, followed by standing for one hour. The resultant was added with 25% hydrogen peroxide aqueous solution and then allowed to stand overnight at room temperature. The resultant solution was warmed and added with 6 ml water. The insolubles were removed by filtration, and the filtrate was analyzed by ICP.

[4] = tested on: exfoliated endothelial site (balloon-injured left carotid artery); test: Ex vivo MRI of extirpated carotid arteries after injection into balloon-injured living rat; format: in vivo; conditions: 2 ml of 24 mM via right jugular vein, FIG. 3
Procedure: The contrast agent of the present invention was evaluated for imaging capability by means of an ex vivo experiment using a living rat. A balloon-tip catheter was passed through the left femoral artery of the rat to injure the carotid artery with the balloon. Then 2 ml of aqueous saline solution containing 24 mM of the contrast agent (EBDTPA-Gd prepared in Example 1) was injected to the rat through the right jugular vein. After a predetermined period of time (10, 30 or 120 minutes), the right carotid artery and the left carotid artery were extirpated, developed, washed with a physiological saline, and then subjected to evaluation by MRI. The MRI evaluation was carried out by imaging the extirpated carotid artery sections, under the condition of being added with one or two droplets of physiological saline solution, by the T1 weighted spin echo method. In FIG. 3, by “injured” is denoted the exfoliated endothelial site (the left carotid artery), which had been injured by the balloon, while “intact” denotes the normal endothelial site (the right carotid artery). The photographs of the developed vascular samples as presented in FIG. 3 reveal purple coloring with intensities corresponding to the MRI signal intensities described later. The pictures (A) as presented in FIG. 3 below the photographs of the developed vascular samples illustrate the states of the samples prepared for the study by MRI. As illustrated, each carotid artery section was developed on a glass plate and covered with one or two droplets of physiological saline solution, for the MRI study.

| Compound | MRI signal in the injured left common carotid artery (image) [1] | MRI signal intensity of injured common carotid artery versus normal common carotid artery [1] | visual observation of the exfoliated endothelial site ([2]; FIG. 2(A)) | MRI signal intensity at the exfoliated endothelial site relative to the normal endothelial site ([2]; T1 weighted spin echo, FIG. 2(C)) | Gd content remaining in various organs ([3]; rat organs and blood, ICP, FIG. 4) | colour of urine (excretion through the kidney) ([3]; rat, ten minutes after the administration) | difference in MRI signal intensity between exfoliated site and normal site ([4]; after 120 minutes) | difference in MRI signal intensity between exfoliated endothelial site and normal site ([4]; after thirty minutes) | MRI signal intensity of the injured site relative to the normal site ([4]; ten minutes from the injection) [times] |
| --- | --- | --- | --- | --- | --- | --- | --- | --- | --- |
| O=C([O-])CN(CCN(CC(=O)[O-])CC(=O)O)CCN(CC(=O)[O-])CC(=O)O.[Gd+3] [DTPA-Gd, reference compound] | no such signal was observed | no substantial difference |  |  |  |  |  |  |  |
| Cc1cc(-c2ccc(NC(=O)CN(CCN(CCN(CC(=O)O)CC(=O)O)CC(=O)O)CC(=O)O)c(C)c2)ccc1N=Nc1ccc2c(S(=O)(=O)O)cc(S(=O)(=O)O)c(N)c2c1O [contrast agent of the present invention] | clear MRI signal | higher than that for the normal right common carotid artery | colored blue | about ten | substantially no remaining Gd in organs other than the blood and kidney | colored purple | no substantial difference | the difference in the signal intensity therebetween shortened | 1.74 |
